Measured values as given in the NIST ThermoML archive (doi:10.1021/je400178k).

Test: molar heat capacity at constant pressure; xn = mol fraction of the nth substance listed
Details: 101 kPa, Liquid, Small sample (50 mg) DSC

OCCN1CCOCC1 [4-morpholineethanol] + O
molar heat capacity at constant pressure [J/K/mol]
Details | x1 = 0.0998 | x1 = 0.1985 | x1 = 0.2979 | x1 = 0.3969 | x1 = 0.4952 | x1 = 0.6017 | x1 = 0.7031 | x1 = 0.7657 | x1 = 0.8977 | x1 = 1
298.15 K | 101 | 120.8 | 140.3 | 159.5 | 177.4 | 195.6 | 212.8 | 223.5 | 246.5 | 263.9
303.15 K | 102.4 | 123.6 | 142.6 | 162.4 | 180 | 198 | 214.7 | 226 | 248.4 | 265.3
308.15 K | 103.8 | 125.7 | 144.6 | 165 | 182.6 | 200.3 | 217.1 | 228.3 | 250.8 | 267.1
313.15 K | 105.4 | 127.9 | 146.7 | 167.8 | 185.5 | 203 | 219.7 | 230.8 | 253.1 | 269.2
318.15 K | 107.2 | 130.4 | 148.9 | 171 | 188.6 | 205.9 | 222.5 | 233.3 | 255 | 270.8
323.15 K | 109 | 133 | 152.3 | 174.4 | 191.8 | 208.7 | 225.5 | 235.8 | 257 | 272.6
328.15 K | 111.4 | 136 | 156.3 | 178.4 | 195.5 | 211.8 | 228.7 | 238.6 | 259.1 | 274.3
333.15 K | 114.2 | 139.3 | 160.3 | 183 | 199.7 | 215.6 | 232.5 | 242.5 | 261.7 | 276.2
338.15 K | 117.4 | 143.2 | 165 | 188.6 | 204.6 | 220.1 | 237 | 246.3 | 264.7 | 278.7
343.15 K | 121.1 | 147.7 | 170.6 | 194.6 | 209.9 | 225.4 | 241.6 | 250.3 | 267.9 | 281
348.15 K | 125.9 | 152.9 | 178.7 | 201.6 | 215.9 | 231 | 246.6 | 254.8 | 271.2 | 283.2
353.15 K | 131.9 | 159.5 | 187 | 209.9 | 222.5 | 236.4 | 252.2 | 259.4 | 274.8 | 284.9

OCCN1CCNCC1 [N-(2-hydroxyethyl)piperazine] + O
molar heat capacity at constant pressure [J/K/mol]
Details | x1 = 0.0999 | x1 = 0.2 | x1 = 0.2921 | x1 = 0.3916 | x1 = 0.4896 | x1 = 0.6011 | x1 = 0.6947 | x1 = 0.7952 | x1 = 0.8939 | x1 = 1
298.15 K | 104.2 | 126.9 | 145.8 | 165.4 | 184.7 | 206.4 | 224.8 | 244.6 | 264.2 | 285
303.15 K | 105.7 | 129.2 | 149.2 | 169.1 | 188.3 | 210.1 | 228.7 | 248.9 | 268.8 | 289.9
308.15 K | 107.1 | 131.5 | 151.9 | 171.5 | 191 | 212.7 | 231.4 | 251.8 | 271.6 | 292.9
313.15 K | 108.6 | 133.9 | 154.8 | 174.4 | 194.1 | 215.8 | 234.5 | 254.5 | 274.4 | 296
318.15 K | 110.4 | 136.1 | 157.5 | 177.5 | 196.8 | 218.2 | 237.1 | 257.2 | 277.2 | 298.9
323.15 K | 112.2 | 139 | 160.7 | 179.9 | 199.4 | 220.7 | 239.6 | 259.8 | 279.8 | 301.7
328.15 K | 114.3 | 142.3 | 164.2 | 182.4 | 202 | 223.7 | 242.6 | 262.7 | 282.8 | 305
333.15 K | 115.7 | 144.9 | 167.3 | 185.7 | 204.7 | 226.3 | 245.3 | 265.5 | 285.7 | 308.1
338.15 K | 118.5 | 148 | 170.6 | 188.1 | 207.5 | 229.1 | 248.2 | 268.2 | 288.4 | 311
343.15 K | 120.8 | 150.6 | 173.3 | 190.9 | 210.1 | 232 | 250.8 | 270.8 | 291.1 | 313.9
348.15 K | 122.5 | 153 | 175.6 | 194 | 212.8 | 234.8 | 253.5 | 273.3 | 293.6 | 316.5
353.15 K | 124 | 155.5 | 177.9 | 197.6 | 215.5 | 237.5 | 256.1 | 275.8 | 296.1 | 319
